Literature values, collected in patent publication US7960134B1, “Kinase inhibition models and their uses” (ArQule, Inc., priority 2007, dated 2011).

Experiments:
c-Abl = c-Abl (Homo sapiens, UniProt P00519); conditions: observation cited from WO 2006/086484 A1
c-Met = c-Met (Homo sapiens, UniProt P08581); conditions: observation cited from WO 2006/086484 A1
Sequence of c-Met (P08581 25-1390): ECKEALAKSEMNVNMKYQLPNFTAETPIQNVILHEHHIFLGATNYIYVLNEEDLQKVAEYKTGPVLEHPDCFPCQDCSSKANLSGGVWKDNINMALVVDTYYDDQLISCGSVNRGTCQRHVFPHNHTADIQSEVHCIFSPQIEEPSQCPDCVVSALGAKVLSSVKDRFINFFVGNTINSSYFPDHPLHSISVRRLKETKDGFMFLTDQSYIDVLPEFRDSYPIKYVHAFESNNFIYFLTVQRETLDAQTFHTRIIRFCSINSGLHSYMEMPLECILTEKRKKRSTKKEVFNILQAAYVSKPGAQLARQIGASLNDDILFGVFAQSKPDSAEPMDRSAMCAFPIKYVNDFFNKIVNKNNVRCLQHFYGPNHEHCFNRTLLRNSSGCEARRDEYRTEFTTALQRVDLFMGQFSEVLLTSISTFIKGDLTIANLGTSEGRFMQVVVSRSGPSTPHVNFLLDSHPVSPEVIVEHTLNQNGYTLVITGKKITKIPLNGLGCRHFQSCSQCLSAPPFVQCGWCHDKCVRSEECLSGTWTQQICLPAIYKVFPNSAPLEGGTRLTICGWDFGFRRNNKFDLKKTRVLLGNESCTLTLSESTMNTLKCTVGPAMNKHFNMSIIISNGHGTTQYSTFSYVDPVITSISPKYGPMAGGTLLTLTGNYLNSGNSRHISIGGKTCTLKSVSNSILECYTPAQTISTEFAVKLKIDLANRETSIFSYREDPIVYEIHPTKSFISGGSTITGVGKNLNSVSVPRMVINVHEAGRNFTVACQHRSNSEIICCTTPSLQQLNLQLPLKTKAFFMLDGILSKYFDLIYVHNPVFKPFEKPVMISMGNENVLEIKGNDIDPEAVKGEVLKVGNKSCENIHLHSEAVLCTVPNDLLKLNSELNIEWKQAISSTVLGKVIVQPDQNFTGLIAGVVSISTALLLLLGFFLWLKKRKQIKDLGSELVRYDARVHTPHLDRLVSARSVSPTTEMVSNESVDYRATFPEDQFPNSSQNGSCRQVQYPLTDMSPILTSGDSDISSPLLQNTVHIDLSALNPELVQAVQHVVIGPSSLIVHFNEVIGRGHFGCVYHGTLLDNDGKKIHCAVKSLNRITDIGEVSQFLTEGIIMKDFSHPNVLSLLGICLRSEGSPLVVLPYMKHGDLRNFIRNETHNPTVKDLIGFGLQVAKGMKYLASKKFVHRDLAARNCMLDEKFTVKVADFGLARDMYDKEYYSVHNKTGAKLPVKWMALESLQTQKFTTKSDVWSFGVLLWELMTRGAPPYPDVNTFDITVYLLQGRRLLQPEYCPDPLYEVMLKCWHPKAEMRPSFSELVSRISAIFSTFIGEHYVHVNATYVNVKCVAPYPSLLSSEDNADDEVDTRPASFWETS

Sequence of c-Abl (P00519 whole entry): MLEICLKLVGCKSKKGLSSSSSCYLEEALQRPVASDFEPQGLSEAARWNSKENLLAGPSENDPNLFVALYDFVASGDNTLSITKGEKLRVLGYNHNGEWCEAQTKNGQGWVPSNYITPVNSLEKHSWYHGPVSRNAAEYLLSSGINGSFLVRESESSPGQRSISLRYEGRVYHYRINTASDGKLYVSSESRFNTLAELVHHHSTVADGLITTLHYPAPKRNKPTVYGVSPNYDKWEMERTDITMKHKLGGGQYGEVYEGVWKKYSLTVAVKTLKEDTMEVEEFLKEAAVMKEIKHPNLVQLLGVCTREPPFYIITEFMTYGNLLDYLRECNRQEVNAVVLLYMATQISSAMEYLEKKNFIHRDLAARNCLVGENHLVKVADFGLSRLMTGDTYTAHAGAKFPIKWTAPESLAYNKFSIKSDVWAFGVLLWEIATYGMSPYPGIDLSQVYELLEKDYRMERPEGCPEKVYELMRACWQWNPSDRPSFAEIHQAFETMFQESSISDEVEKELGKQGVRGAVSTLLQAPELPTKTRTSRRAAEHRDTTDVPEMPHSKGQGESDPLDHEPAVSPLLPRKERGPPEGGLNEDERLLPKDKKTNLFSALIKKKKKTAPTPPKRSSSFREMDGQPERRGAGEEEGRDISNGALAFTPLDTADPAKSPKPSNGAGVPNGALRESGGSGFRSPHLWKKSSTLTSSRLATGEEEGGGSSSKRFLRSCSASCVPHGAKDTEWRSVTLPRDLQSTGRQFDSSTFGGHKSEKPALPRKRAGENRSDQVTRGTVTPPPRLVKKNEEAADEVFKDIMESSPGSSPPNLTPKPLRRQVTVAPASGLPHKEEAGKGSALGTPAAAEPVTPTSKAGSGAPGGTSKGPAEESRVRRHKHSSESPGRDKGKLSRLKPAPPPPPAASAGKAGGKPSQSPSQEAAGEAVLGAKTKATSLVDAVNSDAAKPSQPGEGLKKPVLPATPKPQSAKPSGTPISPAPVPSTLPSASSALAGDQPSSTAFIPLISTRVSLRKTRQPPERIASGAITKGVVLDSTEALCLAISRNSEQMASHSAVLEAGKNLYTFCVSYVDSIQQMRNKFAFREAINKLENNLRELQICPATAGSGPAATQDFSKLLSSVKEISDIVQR

O=C1NC(=O)[C@@H](c2cn3c4c(cccc24)CCC3)[C@@H]1c1c[nH]c2ccccc12 (single isomer, unassigned) [the selective c-Met inhibitor, (−)-trans-3-(5,6-dihydro-4H-pyrrolo[3,2,1-ij]quinolin-1-yl)-4(1H-indol-3-yl)pyrrolidine-2,5-dione]
inhibition of the activity of c-Abl (c-Abl): does not inhibit the activity of c-Abl effectively
inhibition of the activity of c-Met (c-Met): inhibits the activity of c-Met effectively
